# Assay results from patent US20090155784A1, “ASSESSMENT OF ASTHMA AND ALLERGEN-DEPENDENT GENE EXPRESSION” (Wyeth, priority 2007, published 2009).
# Tested on: PBMCs from asthma subjects
# Assay: HG-U133A baseline gene expression in PBMCs of asthma subjects (AOS), cPLA2 inhibitor in the absence of allergen (no AG)
# Type: cell-based, human
# Excerpt: PBMCs were stimulated in vitro with a cocktail containing 4 different allergens from house dust mite, ragweed and cat. Recombinant allergens, Der p1, Der f2, Fel d1 (Indoor Biotech, Charlottesville, Va.) and natural ragweed allergen (Allergy Lab, Seattle, Wash.) were selected and screened for endotoxin contamination (LAL Endotoxin Test, Catalog #HIT302, sensitivity, 0.0001 Eu/ml, Cell Sciences, Canton, Mass.). The sensitivity of the subjects was unknown but the allergens were chosen based on the estimate that 80% of allergic individuals are believed to react to one or more of these allergens. Culture medium contained RPMI-1640 (Sigma) with 10% heat inactivated FCS (Sigma St. Louis, Mo.) and 100 unit/mL Penicillin and […] Streptomycin and 0.292 mg/mL Glutamine (GIBCO RL Invitrogen, Carlsbad, Calif.). The final allergen cocktail concentrations in culture medium were: Der p1 and Der f2 (dust mite), 1 mg/ml; Fel d1 (cat), 1.25 mg/ml; ragweed, 125 mg/ml. […]
# RNA was purified using QIA shredders and Rneasy mini kits (Qiagen, Valencia, Calif.). […] Eluted RNA was quantified using a Spectramax96 well plate UV reader (Molecular Devices, Sunnyvale, Calif., USA) monitoring A260/280 OD values. The quality of each RNA sample was assessed by capillary electrophoresis alongside an RNA molecular weight ladder on the Agilent 2100 bioanalyzer (Agilent Technologies, Palo Alto, Calif., USA). […]
smiles,measurement,value
"Cc1cccc(C)c1CS(=O)(=O)NCCc1c(CCCc2ccc(C(=O)O)cc2)c2cc(Cl)ccc2n1C(c1ccccc1)c1ccccc1 [cPLA2 inhibitor, 4-{3-[1-benzhydryl-5-chloro-2-(2-{[(2,6-dimethylbenzyl)sulfonyl]amino}ethyl)-1H-indol-3-yl]propyl}benzoic acid]","effect on gene expression in the absence of allergen stimulation, asthmatic population",does not affect gene expression
